Here are results for 86 molecules from a melting point compilation (Tetko et al.; mined from patent text by program, amines drawn as free bases though some values may be those of a salt).

As a reminder, the melting point is the temperature of the solid-liquid transition.

Each structure is given as a SMILES string.

With `CCOP(=O)(/C=C/c1cn(-c2ccccc2)nc1OCc1ccc(OCc2nc(N3CCC(C(=O)O)CC3)sc2C)c(OC)c1)OCC`, the melting point is 159 to 160 °C. The value for `O=C(O)c1cc(NC(C(=O)O)c2ccccc2Cl)c(Cl)cc1Cl` (stereo unspecified) was 210 °C; that for `CCCCCCC(C)(C)c1cc(O)c2c(c1)OC(C)(C)[C@@H]1CCC(=O)C[C@H]21` (relative stereo) was 151 to 153 °C; that for `C/C(=C\c1ccc(C(=O)O)cc1)c1ccc2c(c1)SCCS2` was 236 to 237 °C. The result for `CCCCOC(=O)CSc1ncnc2c(O)n(C)nc12` reads 172 °C; that for `Cc1ccc(S(=O)(=O)OCC2Cc3c(C(F)(F)F)ccc(Cl)c3O2)cc1` (stereo unspecified), 89 to 92 °C; that for `COc1ccc(/C=C/c2c(Cl)cncc2Cl)cc1OC1CCCC1`, 99 to 101 °C.

The molecule `O=C(O)C=C1CCCCC1Cc1ccccc1` (racemic) showed a melting point of 98 to 100 °C. `Cc1cc(C)cc(NCc2ccc3nc(NCC(O)CO)n(Cc4nc(C)ccc4O)c3c2)c1` (stereo unspecified) displayed a melting point of 128 °C. For the molecule `Cc1ncc2n1-c1ccccc1N(c1ccccc1)C(=O)C2`, the melting point was 217 to 220 °C. With `COC(=O)Cc1cc2c(cc1CC(=O)NCCc1ccc(OC)c(OC)c1)OCO2`, the melting point is 122 to 125 °C.

`Nc1cc(CCC(=O)NC23CC4CC(CC(C4)C2)C3)ccc1O` showed a melting point of 79 to 80 °C. For `CCn1c(N)c(C(=O)NC)c(=O)c2ccc(-c3ccc(NS(=O)(=O)c4cccc(Cl)c4Cl)c(F)c3)nc21`, the melting point was found to be 333 °C. As to `Clc1ccc(-c2onc3c(CBr)cccc23)cc1`, the melting point was 153 to 155 °C. The result for `Cc1cc(C)c(C(=O)CCCCC(=O)O)c(O)c1C` reads 146 to 148 °C; that for `Cc1oc(-c2ccccc2)nc1CCOc1ccc(CC(F)(C(=O)O)c2ccccc2)cc1` (stereo unspecified), 163 to 165 °C.

As to `COc1ccc(C=CC(=O)c2c(OC)cc(OC)cc2OC(=O)c2ccc(OC)cc2)cc1`, the melting point lay within 111 to 112 °C. `Nc1sc2c(c1C(=O)c1ccc(Cl)cc1)CCNC2` gave a melting point of 164 to 166 °C.

Turning to `CC(C)(CO)C(O)C(Oc1ccc(Cl)cc1)n1cncn1` (stereo unspecified), the melting point lay within 110 to 112 °C.

As to `Cc1cc2c(-c3ccccc3Cl)c(NC(=O)Nc3cccc(Cl)c3)c(=O)n(C)c2cc1C`, the melting point lay in the range of 208 to 210 °C. Molecule `O=C(NC(Cc1c[nH]c2ccccc12)C(=O)O)C(S)Cc1ccccc1` (stereo unspecified) registered a melting point of 117 to 119 °C. Regarding `Cc1nc2ncnn2c2c1c(O)c(O)n2C`, the melting point lay within 215 to 217 °C.

Turning to `Cc1c(F)cc(C(=O)NC2CC2)cc1I`, the melting point lay within 112 to 114 °C. The result for `O=C(NCCCCN1CCC(c2ccc3c(c2OCCO)CCCC3)CC1)c1sc(-c2ccc(C(F)(F)F)cc2)nc1CO` reads 157 to 159 °C. In the case of `O=C(O)c1ccc(-n2c(-c3ccccc3)cc3c2CCCC3)cc1`, the melting point was in the range of 244 to 246 °C. The molecule `C=CCOc1cc(-n2ncc(C(F)(F)F)c(C)c2=O)c(F)cc1Cl` showed a melting point of 79.8 °C. The result for `Nc1cc(O)c(C(=O)O)cc1Cl` reads 192 °C. Take `O=C1NCCN1c1ccc(C2CCN(C(=O)C(F)(F)F)CC2)cc1`: the melting point lay in the range of 198 to 201 °C. For the molecule `O=C1CCC(c2ccccc2)(C2CCNC2)CC1` (stereo unspecified), the melting point was 75 to 79 °C. The result for `CC12C=CCC1C1CCC3CCCCC3C1CC2` (stereo unspecified) reads 165 to 166 °C. The molecule `COc1ccccc1NC(=O)C(C)(C)CCCOc1cc(C)ccc1C` displayed a melting point of 47 to 48 °C. Molecule `NCCOc1cccc2[nH]ccc12` showed a melting point of 123 to 125 °C. With `O=C(O)c1ccc(C(c2ccc(C(=O)O)c(C(=O)O)c2)(C(F)(F)F)C(F)(F)F)cc1C(=O)O`, the melting point is 231 to 234 °C.

`COCC(C)Oc1ccc(CSc2cnn(C(C)(C)C)c(=O)c2Cl)cc1` (stereo unspecified) gave a melting point of 51 to 52 °C. As to `CCn1cc(C(=O)NC2CCCc3ccccc32)c(=O)c2cnc(N3CCCC3)nc21` (stereo unspecified), the melting point fell in the range of 284 to 286 °C. The value for `COc1cccc(C(=O)NCc2cccc3c2CN(C2CCC(=O)NC2=O)C3=O)c1` (stereo unspecified) was 244 to 246 °C; that for `COc1ccc(S(=O)(=O)Nc2cccc(C)c2NC(=O)c2ccc(F)cc2)cc1` was 204 to 206 °C; that for `Cc1c(-c2ccnc(Cl)n2)cccc1[N+](=O)[O-]` was 138 to 139 °C. `COc1ncccc1C(=O)Nc1ccn2cc(-c3ccccc3)nc2n1` returned a melting point of 225 to 226 °C.

For the molecule `N#CCN1CCN(c2cccccc2=O)CC1`, the melting point fell in the range of 133 to 135 °C. The molecule `CCN(CC)C(=O)n1cc(Br)c(S(=O)(=O)c2cc(C)ccc2C)n1` returned a melting point of 83 to 84 °C. In turn, `Cc1cccc(OCC(O)CN2C(=O)C3CCCN3c3ncccc32)c1C` (stereo unspecified) showed a melting point of 123 to 125 °C. Consider `CCOC(=O)Cc1nn(Cc2ccc(Br)c(Cl)c2)c(=S)c2ccccc12`, for which the melting point lay in the range of 124 to 126 °C.

The molecule `CCCCNS(=O)(=O)CC(O)C(O)C(CC1CCCCC1)NC(=O)c1ccc(O)nc1` (stereo unspecified) had a melting point of 247 to 252 °C. For the molecule `CC(=O)OCC1=CC(=O)C=C2CCC3C4CCC(=O)C4(C)CCC3C21C` (stereo unspecified), the melting point was in the range of 121 to 123 °C.

Molecule `CS(=O)(=O)c1ccc(-n2nc(C(F)(F)F)cc2-c2ccc(-c3ccco3)cc2)cc1` came in with a melting point of 196 °C. The molecule `Cc1c(O)cc(OC(=O)Cc2ccc(CC(=O)Oc3cc(O)c(C)c(O)c3)cc2)cc1O` had a melting point of 276 to 278 °C. With `COc1ccc(/C=C(\C#N)c2ccc3ccccc3c2)cc1OC1CCCC1`, the melting point lay within 147 to 148 °C. The result for `N#CC1=C(c2ccccc2)Nc2n[nH]cc2C1c1ccccc1[N+](=O)[O-]` (stereo unspecified) reads 221 °C. The result for `COC(=O)C(Cc1cc(OC)cc(C(F)(F)F)c1)NC(=O)c1ccccc1` (stereo unspecified) reads 133 °C; that for `CC1(C)OCCN1C(=O)C=Cc1ccccc1`, 107 to 109 °C; that for `CCOC(=O)/C=C/c1ccccc1C1C(C(=O)OCC)=C(C)NC(C)=C1C(=O)OCC`, 130 to 131 °C.

The molecule `CCN(CC)CCNC(=O)c1cc(Cl)c2cc(I)ccc2n1` returned a melting point of 64 to 66 °C. Regarding `COc1cc2c(c3c1OC(C)(C)C3)C(c1cccc(N3C(=O)c4ccccc4C3=O)c1)=NC(C)(C)C2`, the melting point lay in the range of 162 to 168 °C.

`O=C(COc1cc(F)ccc1C(=O)NCc1cccc([N+](=O)[O-])c1)OC1CCCCC1` had a melting point of 87 to 90 °C. `O=S1(=O)CCN(CC#Cc2cnc3c(c2)N(Cc2cc(Cl)ccc2Cl)CCN3)CC1` registered a melting point above 200 °C.

`CCN(CC)CCN(CC)C(=O)c1ccc(Nc2ccnc3c(C(F)(F)F)cccc23)cc1` yielded a melting point of 151 to 152 °C. Take `C[C@H](NC(=O)c1c[nH]c2ncc(-c3cn(-c4cc(Cl)ccc4F)cn3)nc12)C(C)(C)C`: the melting point is 337 to 339 °C.

Consider `CC(C)(C(=O)c1ccc(N2CCOCC2)cc1)N1CCOCC1`, for which the melting point lay within 114 to 116 °C. Regarding `O=C(Nc1ccc(C(=O)N2C=C3CC=CN3Cc3ccccc32)cc1)c1ccccc1F`, the melting point fell in the range of 257 to 260 °C. `CCC(CC)CNC(=O)c1ccc(CN2C(=O)C3(COc4cc5c(cc43)CCO5)c3ccccc32)cc1` (stereo unspecified) gave a melting point of 211 to 213 °C. In the case of `COc1cc(Nc2c(C#N)cnc3ccc(/C=C/CCN4CCOCC4)cc23)cc(OC)c1OC`, the melting point lay in the range of 86 to 87 °C. The molecule `CC(=O)Oc1ccc(-c2cnc(NC(=O)Cc3ccccc3)c(Cc3ccccc3)n2)cc1` yielded a melting point of 228 to 231 °C.

In turn, `CCc1nc(C(=O)c2c(C)cc(C)cc2C)c(C=O)n1C(CC)CC` had a melting point of 119 to 120 °C. The result for `O=C(O)CCC(=O)c1ccc(Cl)c(S(=O)(=O)NCc2ccccc2Cl)c1` reads 158 °C; that for `Nc1cc(Sc2ccc3c(C(=O)O)cccc3c2)ncn1`, 264 to 266 °C; that for `OC(CCl)CSc1ncc(Cl)cn1` (stereo unspecified), 99 °C. The value for `c1ccc(C(c2ccccc2)N2C(=NCCCn3ccnc3)c3cccc4cccc2c34)cc1` was 142 to 143 °C. As for `CCN1C(=O)N(c2ccc(C#N)c(C(F)(F)F)c2)C(=O)C1(CF)CF`, the melting point lay within 129 to 130 °C. For the molecule `O=C(O)c1cccc2c1CCCc1ccccc1-2`, the melting point fell in the range of 137 to 139 °C. For `O=C1CCCN(C(=O)c2ccc([N+](=O)[O-])cc2Cl)c2ncccc21`, the melting point fell in the range of 162 to 164 °C. As for `CC[C@H](C)[C@@H](CO)NC(=O)C[C@H](O)[C@H](CC(C)C)NC(=O)[C@H](CC(C)C)NC(=O)[C@H](Cc1cccc2ccccc12)NC(=O)OCc1ccccc1`, the melting point was 206 to 212 °C. For `Cc1ccc(NC(=O)c2cccc(N(C)C)c2)cc1NC(=O)c1ccc(N(C)CCCN(C)C)cc1`, the melting point fell in the range of 178 to 179 °C. `CC1OOC2CC1CC(=O)C2C` (stereo unspecified) showed a melting point of 160 °C.

As to `Brc1ccc(-c2cc(-c3ccc(Br)cc3)on2)cc1`, the melting point lay in the range of 218 to 220 °C.

As to `CCOC(=O)COc1ccc(NC(=O)OC(C)(C)C)cc1OC`, the melting point was in the range of 81 to 83 °C. The result for `CC(=O)N[C@@H](C)COc1ccc2nc(-c3cc(F)c(OCC4CC4)c(F)c3)oc2c1F` reads 146 to 147 °C; that for `O=C(OCCN1CCOC1=O)c1ccccc1Nc1ccnc2cc(Cl)ccc12`, 122 to 124 °C. As to `CCc1cn(C2CC(O)C(CNCc3ccccc3Br)O2)c(=O)[nH]c1=O` (stereo unspecified), the melting point was 144 to 146 °C. For `O=C(Nc1cccc2cc(COc3ccccc3)cnc12)c1c(Cl)cccc1Cl`, the melting point came out at 157 °C. Consider `CC(=O)Nc1c(C(=O)c2cc(-c3ccccc3)no2)[nH]c2cc(Cl)ccc12`, for which the melting point lay in the range of 209 to 210 °C. `CCCCCCCCCCSCCCN=C=O` returned a melting point of 89 to 92 °C. Molecule `COc1ccc2c3c(oc2c1)CC(CC1CCN(Cc2ccccc2)CC1)C3=O` (stereo unspecified) yielded a melting point of 137 to 138 °C. For the molecule `CCc1c(-c2cc(C)c(O)c(C)c2)[nH]c2ccc(OC)cc12`, the melting point is 176 to 178 °C. `O=C(NC1CCCCC1=Cc1ccccc1)C(F)(F)F` (stereo unspecified) gave a melting point of 109 to 110 °C. The molecule `Cc1cc(OC(C)c2ccc(-c3ccccc3-c3nnn(C(c4ccccc4)(c4ccccc4)c4ccccc4)n3)cc2)c2ccccc2n1` (stereo unspecified) displayed a melting point of 160 to 161 °C.
